The nature of data set [1]: Thermogravimetric analysis (thermal stability). In kind it is physicochemical. Particulars: TGA, heating rate 20° C./min. As to the method:
The thermogravimetric analysis was also conducted on a Mettler 850, TA 2920. Samples were placed into a ceramic or aluminum sample pan. A heating rate of 20° C./min was employed over a temperature range from 20° C. to 600° C.

A short description of data set [2]: Solubility of saturated solutions determined by HPLC. Format: physicochemical. As to the method:
Saturated solutions of {4,6-bis(dimethylamino)-2-(4-(4-(trifluoromethyl)-benzamido)benzyl)pyrimidin-5-yl}acetic acid of Formula I in the solvents listed in Table 1 were prepared from the acid predominantly in Form I, at both 25 and 50° C.

For another data set, the target named is T1, CRTH2 (Homo sapiens, UniProt Q9Y5Y4).
T1 construct: expressed in transfected cells
T1 sequence (Q9Y5Y4 1-395): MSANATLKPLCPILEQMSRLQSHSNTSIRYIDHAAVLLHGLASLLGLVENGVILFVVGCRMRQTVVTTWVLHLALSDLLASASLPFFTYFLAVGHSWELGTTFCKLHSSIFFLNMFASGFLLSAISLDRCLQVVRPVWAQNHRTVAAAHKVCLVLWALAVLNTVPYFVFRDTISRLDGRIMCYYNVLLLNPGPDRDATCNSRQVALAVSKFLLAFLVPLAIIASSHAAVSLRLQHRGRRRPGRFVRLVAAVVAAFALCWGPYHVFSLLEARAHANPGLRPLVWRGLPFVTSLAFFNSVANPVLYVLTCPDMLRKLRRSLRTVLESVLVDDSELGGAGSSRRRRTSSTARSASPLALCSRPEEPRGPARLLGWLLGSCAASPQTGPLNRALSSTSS
Kind of data set: Competitive radioligand (3H-PGD2) binding assay, CRTH2-transfected cells. As to conditions: competition with 1 nM 3H-PGD2, CRTH2-transfected cells, FIG. 10.

Another data set deals with T2, DP1 (Homo sapiens, UniProt Q13258).
T2 sequence (Q13258 1-359): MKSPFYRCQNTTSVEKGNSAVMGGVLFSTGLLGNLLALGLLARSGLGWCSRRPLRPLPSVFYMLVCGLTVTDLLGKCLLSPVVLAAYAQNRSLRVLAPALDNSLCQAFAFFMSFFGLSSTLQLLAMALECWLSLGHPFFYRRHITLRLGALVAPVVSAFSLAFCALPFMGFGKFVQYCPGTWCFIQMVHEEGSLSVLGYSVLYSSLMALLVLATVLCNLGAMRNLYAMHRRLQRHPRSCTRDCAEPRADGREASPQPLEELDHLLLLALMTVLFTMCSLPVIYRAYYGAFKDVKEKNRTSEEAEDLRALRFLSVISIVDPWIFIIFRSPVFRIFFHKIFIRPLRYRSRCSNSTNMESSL
The experiment in a line: Competitive radioligand (3H-PGD2) binding assay, DP1-transfected cells. Particulars: competition with 1 nM 3H-PGD2, DP1-transfected cells, FIG. 11. As to the method: The binding affinity and selectivity of the amine salts of 4,6-bis(dimethylamino)-2-(4-(4-(trifluoromethyl)benzamido)benzyl)pyrimidin-5-yl}acetic acid provided herein were evaluated using a competitive radioligand binding assay with stably-transfected cell lines expressing CRTH2 or DP1.
Prostaglandin D2 and 13,14-dihydro-15-keto PGD2 were obtained from Cayman Chemical (Ann Arbor, Mich.). Radiolabelled PGD2 (5,6,8,9,12,14,15-^3H(N)) with a specific activity of 160 Ci/mmol was obtained from PerkinElmer (Boston, Mass.). Cell culture medium RPMI 1640, HEPES buffer, phosphate buffered saline (PBS), L-glutamine, and penicillin-streptomycin solution were obtained from Mediatech Inc. (Herndon, Va.). Fetal calf serum (FCS) was obtained from Cambrex (Walkersville, Md.). Puromycin was obtained from Invitrogen (San Diego, Calif.). Poly(ethyleneimine) (PEI) was obtained from Acros Organics (Morris Plains, N.J.). […]
Radioligand binding analyses were performed according to the methods of Sugimoto et al. (J. Pharm. Exp. Therap. 2003, 305, 347-352; Eur. J. Pharmacol. 2005, 524, 30-37). […] Scintillant (50 μL; Microscint™ 20, Perkin Elmer, Boston, Mass.) was added to each well and the radioactivity was counted on a TopCount (Packard Bioscience, Meriden, Conn.). […]

Here are results for 2 compounds from patent publication US8507005B2, “Particulates of a CRTH2 antagonist” (Actimis Pharmaceuticals, Inc., priority 2007, dated 2013).

In brackets after ≈: the same amount, converted by molar mass. Like-named read-outs stand apart in the source and are kept apart here.

The solubility is the dissolved amount per volume that the medium holds.

Description for CRTH2: Prostaglandin D2 and 13,14-dihydro-15-keto PGD2 were obtained from Cayman Chemical (Ann Arbor, Mich.). Radiolabelled PGD2 (5,6,8,9,12,14,15-^3H(N)) with a specific activity of 160 Ci/mmol was obtained from PerkinElmer (Boston, Mass.). Cell culture medium RPMI 1640, HEPES buffer, phosphate buffered saline (PBS), L-glutamine, and penicillin-streptomycin solution were obtained from Mediatech Inc. (Herndon, Va.). Fetal calf serum (FCS) was obtained from Cambrex (Walkersville, Md.). Puromycin was obtained from Invitrogen (San Diego, Calif.). […]
The surface expression of CRTH2 on the transfected cell lines was monitored periodically during culture and prior to each competitive radioligand binding assay. […] The cells were then washed in 2 mL of FACS buffer (PBS containing 1% BSA (Fraction V) and 0.1% sodium azide. The cells were subsequently incubated on ice with a FITC-conjugated anti-rat antibody (goat anti-rat Ig-FITC). After washed with cold FACS buffer, the cells were analyzed using a FACScan II analyzer and CellQuest software, both from Becton Dickinson (Mountain View, Calif.). […]

On to `CN(C)c1nc(Cc2ccc(NC(=O)c3ccc(C(F)(F)F)cc3)cc2)nc(N(C)C)c1CC(=O)O` [Form I, {4,6-bis(dimethylamino)-2-(4-(4-(trifluoromethyl)benzamido)benzyl)pyrimidin-5-yl}acetic acid], for which, in data set [1], the “decomposition temperature (no significant weight loss until decomposition)” value is “around 200 °C”. Besides, the solubility in data set [2] (water, at room temperature, read-out: aqueous solubility) was around 0.003 mg/mL (≈ 5.98 µM).
Turning to `CN(C)c1nc(Cc2ccc(NC(=O)c3ccc(C(F)(F)F)cc3)cc2)nc(N(C)C)c1CC(=O)O` [Formula I, {4,6-bis(dimethylamino)-2-(4-(4-(trifluoro-methyl)benzamido)benzyl)pyrimidin-5-yl}acetic acid], the solubility in data set [2] (organic solvent or mixture, thermodynamic from solid, 1,4-Dioxane, 25° C., read-out: Solubility) was 3.37 mg/mL; in data set [2] (organic solvent or mixture, thermodynamic from solid, 1,4-Dioxane, 50° C., read-out: Solubility) it was 9.83 mg/mL; in data set [2] (organic solvent or mixture, thermodynamic from solid, 1-Propanol, 25° C., read-out: Solubility) it was 0.79 mg/mL; in data set [2] (organic solvent or mixture, thermodynamic from solid, 1-Propanol, 50° C., read-out: Solubility), 2.41 mg/mL; in data set [2] (organic solvent or mixture, thermodynamic from solid, 2-Methoxyethanol, 25° C., read-out: Solubility) it was 5.35 mg/mL; in data set [2] (organic solvent or mixture, thermodynamic from solid, 2-Methoxyethanol, 50° C., read-out: Solubility), 8.55 mg/mL. Moreover, the solubility was 2.62 mg/mL in data set [2] (organic solvent or mixture, thermodynamic from solid, Acetone, 25° C., read-out: Solubility); 3.34 mg/mL in data set [2] (organic solvent or mixture, thermodynamic from solid, Acetone, 50° C., read-out: Solubility); above 50 mg/mL in data set [2] (organic solvent or mixture, thermodynamic from solid, DMSO, 25° C., read-out: Solubility); above 50 mg/mL in data set [2] (organic solvent or mixture, thermodynamic from solid, DMSO, 50° C., read-out: Solubility); 1.09 mg/mL in data set [2] (organic solvent or mixture, thermodynamic from solid, Ethanol, 25° C., read-out: Solubility); 2.25 mg/mL in data set [2] (organic solvent or mixture, thermodynamic from solid, Ethanol, 50° C., read-out: Solubility). The solubility turned out to be 0.53 mg/mL in data set [2] (organic solvent or mixture, thermodynamic from solid, Ethyl acetate, 25° C., read-out: Solubility); 1.27 mg/mL in data set [2] (organic solvent or mixture, thermodynamic from solid, Ethyl acetate, 50° C., read-out: Solubility); 0.39 mg/mL in data set [2] (organic solvent or mixture, thermodynamic from solid, Ethyl formate, 25° C., read-out: Solubility); 1.51 mg/mL in data set [2] (organic solvent or mixture, thermodynamic from solid, Ethyl formate, 50° C., read-out: Solubility); 0.2 mg/mL in data set [2] (organic solvent or mixture, thermodynamic from solid, Isobutyl acetate, 25° C., read-out: Solubility); 0.83 mg/mL in data set [2] (organic solvent or mixture, thermodynamic from solid, Isobutyl acetate, 50° C., read-out: Solubility). The solubility in data set [2] (organic solvent or mixture, thermodynamic from solid, Isopropanol, 25° C., read-out: Solubility) is 0.77 mg/mL; in data set [2] (organic solvent or mixture, thermodynamic from solid, Isopropanol, 50° C., read-out: Solubility), 1.96 mg/mL; in data set [2] (organic solvent or mixture, thermodynamic from solid, Isopropyl acetate, 25° C., read-out: Solubility), 0.27 mg/mL; in data set [2] (organic solvent or mixture, thermodynamic from solid, Isopropyl acetate, 50° C., read-out: Solubility), 0.78 mg/mL; in data set [2] (organic solvent or mixture, thermodynamic from solid, MIBK, 25° C., read-out: Solubility) it was 0.54 mg/mL; in data set [2] (organic solvent or mixture, thermodynamic from solid, MIBK, 50° C., read-out: Solubility) it was 1.8 mg/mL. Besides, the solubility was determined as 0.09 mg/mL in data set [2] (organic solvent or mixture, thermodynamic from solid, MTBE, 25° C., read-out: Solubility); 0.41 mg/mL in data set [2] (organic solvent or mixture, thermodynamic from solid, MTBE, 50° C., read-out: Solubility); 2.23 mg/mL in data set [2] (organic solvent or mixture, thermodynamic from solid, Methanol, 25° C., read-out: Solubility); 3.04 mg/mL in data set [2] (organic solvent or mixture, thermodynamic from solid, Methanol, 50° C., read-out: Solubility); 0.03 mg/mL in data set [2] (organic solvent or mixture, thermodynamic from solid, Toluene, 50° C., read-out: Solubility); 0.79 mg/mL in data set [2] (organic solvent or mixture, thermodynamic from solid, n-Butanol, 25° C., read-out: Solubility). Besides, the solubility in data set [2] (organic solvent or mixture, thermodynamic from solid, n-Butanol, 50° C., read-out: Solubility) was 2.11 mg/mL; in data set [2] (saturated solution in DMF, organic solvent or mixture, thermodynamic from solid, DMF, 25° C., read-out: Solubility) it was above 50 mg/mL; in data set [2] (saturated solution in DMF, organic solvent or mixture, thermodynamic from solid, DMF, 50° C., read-out: Solubility), above 50 mg/mL; in data set [2] (saturated solution in MEK, organic solvent or mixture, thermodynamic from solid, MEK, 25° C., read-out: Solubility) it was 1.98 mg/mL; in data set [2] (saturated solution in MEK, organic solvent or mixture, thermodynamic from solid, MEK, 50° C., read-out: Solubility), 4.26 mg/mL; in data set [2] (saturated solution in THF, organic solvent or mixture, thermodynamic from solid, THF, 25° C., read-out: Solubility), 11.3 mg/mL. The solubility turned out to be 32.7 mg/mL in data set [2] (saturated solution in THF, organic solvent or mixture, thermodynamic from solid, THF, 50° C., read-out: Solubility); 0.24 mg/mL in data set [2] (saturated solution in acetonitrile, organic solvent or mixture, thermodynamic from solid, Acetonitrile, 25° C., read-out: Solubility); 0.94 mg/mL in data set [2] (saturated solution in acetonitrile, organic solvent or mixture, thermodynamic from solid, Acetonitrile, 50° C., read-out: Solubility); 0.17 mg/mL in data set [2] (saturated solution in chloroform, organic solvent or mixture, thermodynamic from solid, Chloroform, 25° C., read-out: Solubility); 0.35 mg/mL in data set [2] (saturated solution in chloroform, organic solvent or mixture, thermodynamic from solid, Chloroform, 50° C., read-out: Solubility); 0.07 mg/mL in data set [2] (saturated solution in dichloromethane, organic solvent or mixture, thermodynamic from solid, Dichloromethane, 25° C., read-out: Solubility). Also, the solubility in data set [2] (thermodynamic from solid, Water, 50° C., read-out: Solubility) worked out at 0.02 mg/mL. Besides, the “binding affinity for CRTH2” value at CRTH2 is recorded as “high affinity”. In addition, the “binding selectivity for CRTH2 versus DP1” value at DP1 is reported as “binds selectively to CRTH2”.
